We go through one molecule from patent US20260234173A1, “STRUCTURED MOLECULAR VECTORS FOR ANTI-INFLAMMATORY COMPOUNDS AND USES THEREOF” (Universite Claude Bernard Lyon 1, priority 2019, published 2026).

Molecules are shown by their SMILES.

Experiment [1] has as its system immortalized human microglia (IHM). Kind of experiment: Expression of inflammation markers in immortalized human microglia activated by IL-1β (RT-qPCR). The format is cell-based. The settings on record: pre-treated with 150 nM and 300 nM 3 hours before IL-1β (3 ng/mL); RNA after 5 hours. On the procedure: Immortalized human microglia (IHM; Innoprot, Derio, Spain) were seeded at 13,000 cells/cm^2 in T75 flasks coated with type I human collagen (10 μL/mL, Coating Matrix Kit, Innoprot). The medium was formulated for optimal growth of human brain-derived microglia in vitro, and contained 1% pen/strep, 1% of microglia growth supplement and 5% fetal bovine serum (Microglial Cell Medium Kit, Innoprot).
IHM were seeded (10,000 cells/cm^2) in type 1 collagen-coated 6-well plates. When cell culture was about 80% confluent, IL-1β (R&D Systems) was added to the culture medium at 0.5 ng/mL, 1.5 ng/mL or 3.0 ng/mL. At t=0, each well received 1 mL of medium only (controls) or 1 mL of medium containing the desired concentration of IL-1β. Cells were harvested at t=0 h, t=3 h, t=8 h and t=24 h. Each tested condition was repeated as triplicates.
The effect of synaptamide phosphonate has been tested as illustrated in FIG. 5. […]
PCR amplification of targeted cDNAs was performed using the Rotor-Gene Q system (Qiagen) and the QuantiTect SYBR Green PCR Kit (Qiagen).
The ScDNA copy number measured after qPCR was used to estimate the RT step yield for each sample, taking into account that the same number of SmRNA copies was initially present in all samples before RT step. This yield made it possible to standardize the values obtained for all the genes of interest measured from the same sample. […]
In general terms: Quantitative PCR measures a nucleic acid by following its amplification.

Experiment [2] is described as follows: Recovery of weight loss in rats after status epilepticus. Format: in vivo, rat. The settings on record: 10 mg/Kg i.p. every day for 7 days after Pilo-SE. On the procedure: Rats were subjected to pilocarpine-induced status epilepticus at day 0) and were administered (10 mg/Kg, i.p) Synaptamide phosphonate (SynPn) every day for 7 days. The weight of animals was daily measured. Results are described in FIG. 20. Results are expressed as the percentage of weight of animals (10-15 animals/group) at day 0. Statistical differences between Controls/SE+NaCl (*: p<0.05, ***: p<0.001) and between SE+NaCl/SE+SynPn (#: p<0.05).

Consider `CCC=CCC=CCC=CCC=CCC=CCC=CCCC(=O)NCCP(=O)(O)O` [synaptamide phosphonate], for which the “IL-1β-mediated cytokine and chemokine gene induction” value in experiment [1] was “dramatic reduction”. Further, in experiment [2], the “recovery of weight loss after SE” value is listed as “facilitates the recovery of weight loss”.
